According to patent US10631540B2, “Plant disease control composition, and plant disease control method” (Sumitomo Chemical Company, Limited, priority 2015, dated 2020):

Key:
[1] = test system: Pythium damping-off pathogen (Pythium irregulare); assay: Soybean seed treatment test against Pythium damping-off (Test Example 1); assay type: in vivo; conditions: soybean (Hatayutaka) seed treatment; dose rate gai/100 kg seed where present: ethaboxam 3.75, metalaxyl 1.0, oxathiapiprolin 3.75; grown 15° C. 5 days then 25° C. 10 days
Method: An acetone solution containing the compounds was prepared such that the amounts of compounds to be treated for seeds were set to the dose rate listed in Table 1. 10 g of seeds of soybean (Hatayutaka) and 80 μl of the acetone solution were added to a plastic container, the container was covered with a lid and then shaken, and then the seeds taken out of the container were left overnight, thereby obtaining treated seeds. A plastic pot was filled with culture soil, and the treated seeds were sowed and then were covered with culture soil mixed with seeds of grass turf which was infected with Pythium damping-off pathogen (Pythium irregulare). After irrigation, the seeds were grown at 15° C. for 5 days and then grown at 25° C. for 10 days. This area was set to a treated area. Further, soybeans were grown in the same manner as in the treated area except that a chemical agent was not applied to the seeds. This area was set to a non-treated area. The incidence of disease of plants in the treated area and the non-treated area were calculated using the following “Equation 1”. The control values were calculated using the following “Equation 2”. […] A: Incidence of disease of plants of non-treated area B: Incidence of disease of plants of treated area

[2] = test system: Pythium damping-off pathogen (Pythium ultimum); assay: Soybean seed treatment test against Pythium damping-off (Test Example 2); assay type: in vivo; conditions: soybean (Hatayutaka) seed treatment; dose rate gai/100 kg seed where present: ethaboxam 3.75, metalaxyl 1.0, oxathiapiprolin 3.75; grown 15° C. 5 days then 25° C. 10 days
Method: An acetone solution containing the compounds was prepared such that the amounts of compounds to be treated for seeds were set to the dose rate listed in Table 2. 10 g of seeds of soybean (Hatayutaka) and 80 μl of the acetone solution were added to a plastic container, the container was covered with a lid and then shaken, and then the seeds taken out of the container were left overnight, thereby obtaining treated seeds. A plastic pot was filled with culture soil, and the treated seeds were sowed and then were covered with culture soil mixed with seeds of grass turf which was infected with Pythium damping-off pathogen (Pythium ultimum). After irrigation, the seeds were grown at 15° C. for 5 days and then grown at 25° C. for 10 days. This area was set to a treated area. Further, soybeans were grown in the same manner as in the treated area except that a chemical agent was not applied to the seeds. This area was set to a non-treated area. The incidence of disease of plants in the treated area and the non-treated area were calculated using the above-described “Equation 1”. The control values were calculated using the above-described “Equation 2”.

Structure (SMILES) | Control value (%) [1] [%] | Control value (%) [2] [%]
COCC(=O)N(c1c(C)cccc1C)C(C)C(=O)OC (racemic) [Metalaxyl, metalaxyl] | 6 | 0
CCNc1nc(CC)c(C(=O)NC(C#N)c2cccs2)s1 (stereo not drawn) [Ethaboxam, ethaboxam] | 9 | 14
Cc1cc(C(F)(F)F)nn1CC(=O)N1CCC(c2nc(C3=NOC(c4c(F)cccc4F)C3)cs2)CC1 (stereo not drawn) [Oxathiapiprolin, oxathiapiprolin] | 6 | 14
